Key:
[1] = test system: bovine aortic endothelial cells; assay: Apoptotic cell death by bisbenzamide trihydrochloride/Hoechst-33258 staining; type: cell-based; conditions: 5 mM
[2] = Tolerated dose in mice
[3] = test system: SAPK; assay: SAPK tyrosine phosphorylation (anti-SAPK IP, anti-PY immunoblot); type: cell-based, human; conditions: 10 mM, time course, vs tempol or untreated controls
Procedure: (§1) FIGS. 5A, 5B, 5C. Tempo stimulates tyrosine phosphorylation and activity of SAPK. […] 5A. WCLs (1 mg) were immunoprecipitated with agarose-conjugated anti-SAPK antibody, followed by immunoblotting with anti-PY MAb. 5B. In other independent experiments, anti-SAPK immunoprecipitates were first probed with anti-PY MAb (top), and the blot was then reprobed with anti-SAPK antibody (bottom). 5C. […] WCLs were immunoprecipitated with anti-JNK1 antibody, and the JNK1 activity in immunoprecipitates was measured using GST-cJun (˜41 kDa) as a substrate. UT, untreated cells grown overnight in serum-free medium; CONT/Control, cells grown in serum-free medium overnight, and treated with 1% ethanol for 2 h.
Immunoprecipitation and Immunoblotting—Whole cell lysate (1 mg) was immunoprecipitated with the appropriate agarose-conjugated antibody (1 ug/ml of lysis buffer) overnight at 4° C. with constant agitation. For SAPK immunoprecipitation, WCL (1 mg) was immunoprecipitated with anti-SAPK antibody (5 ug/ml) overnight followed by addition of protein A-Agarose (50 ul of 250 ul/ml stock) and incubation for 2 h at 4° C. Immune-complex beads were collected by microcentrifugation at 15,000×g for 5 min followed by three washes with lysis buffer. […] The bands of interest were quantified by ImageQuant software version 3.3 (Molecular Dynamics Personal Densitometer, Sunnyvale, Calif.). […]

[4] = test system: SAPK/JNK; assay: SAPK/JNK1 activity (GST-cJun phosphorylation); type: cell-based, human; conditions: 10 mM, 2 h, vs tempol or 1% ethanol control
Procedure: as §1
ERK and SAPK/JNK Activities—Whole cell lysates prepared as described above were immunoprecipitated (1 mg) with an agarose conjugated anti-ERK1 antibody or an agarose conjugated anti-JNK1 antibody for 2 h at 4° C. with constant agitation. The immune-complexes were washed 3 times in lysis buffer and once in KBB as mentioned earlier. ERK or JNK activity assay was carried out according to manufacturer's procedures (UBI). […] The radioactive filters were washed and counted as described above. […] The radiolabeled GST-cJun fusion protein was detected by autoradiography.

[5] = Kocherginsky et al., 1995; cited from earlier work

CC1(C)CCCC(C)(C)N1[O] [tempo, 2,2,6,6-tetramethylpiperidine-N-oxyl]
apoptotic cell death ([1]; 4 h): 3.97±0.33% | apoptotic cell death ([1]; 8 h): 38.85±1.69% | intratumoral tolerance [2]: over 200 mg/kg | level of phosphorylated SAPK (SAPKP) [3]: significant increase | increase in the phosphorylated GST-cJun fusion protein [4]: 3–7 fold | lipophilicity relative to tempol [5]: approximately 200 times
